The record followed here is US20220213055A1, “SUBSTITUTED (PIPERIDIN-1-YL)ARYL ANALOGUES FOR MODULATING AVIL ACTIVITY” (University of Virginia Patent Foundation, priority 2019, published 2022).

Holding throughout (format): cell-based
For assay [1], the system named is Glioblastoma cell line U87 cells. The assay is described as follows: MTT cell viability assay, glioblastoma cells. Particulars: for IC50: U87 glioblastoma cells, MTT after three days. How it is done: (§1) Different concentration of compounds were added to the cells. Three days later, a MTT assay (Sigma) was performed to monitor cell viability.
(§2) In this example, samples of glioblastoma cells (U87) and astrocyte cells (non-cancer control) were exposed various disclosed compounds to determine the effectiveness of the compounds for inhibiting cell growth.
For orientation: Formazan colour is commonly taken as a measure of viable cells.

The test system of another assay is LIN28B. The assay is described as follows: LIN28B gene expression by qRT-PCR in U87 cells. Particulars: IC50 concentration, relative to GAPDH, FIG. 3. How it is done: U87 cells were treated at the IC50 concentration of the five test compounds. Cells were harvested. RNA was extracted using TRIzol reagent (Invitrogen) and quantified with Nanodrop (Thermo). cDNA was generated by AMV-RT kit (NEB), and a random hexamer primer. Real-time qPCR was carried out on the StepOne Plus system from Applied Biosystems using SYBR mix (Thermo). LIN28B expression was measured by qRT-PCR and is represented relative to GAPDH levels. […] The following primers were used for […] and GAPDH amplifications: […]

For assay [2], the target named is T1, AVIL protein binding to actin (Homo sapiens, UniProt O75366).
T1 construct: expressed in transfected cells; host or cells: 293T cells
T1 sequence (O75366 1-819): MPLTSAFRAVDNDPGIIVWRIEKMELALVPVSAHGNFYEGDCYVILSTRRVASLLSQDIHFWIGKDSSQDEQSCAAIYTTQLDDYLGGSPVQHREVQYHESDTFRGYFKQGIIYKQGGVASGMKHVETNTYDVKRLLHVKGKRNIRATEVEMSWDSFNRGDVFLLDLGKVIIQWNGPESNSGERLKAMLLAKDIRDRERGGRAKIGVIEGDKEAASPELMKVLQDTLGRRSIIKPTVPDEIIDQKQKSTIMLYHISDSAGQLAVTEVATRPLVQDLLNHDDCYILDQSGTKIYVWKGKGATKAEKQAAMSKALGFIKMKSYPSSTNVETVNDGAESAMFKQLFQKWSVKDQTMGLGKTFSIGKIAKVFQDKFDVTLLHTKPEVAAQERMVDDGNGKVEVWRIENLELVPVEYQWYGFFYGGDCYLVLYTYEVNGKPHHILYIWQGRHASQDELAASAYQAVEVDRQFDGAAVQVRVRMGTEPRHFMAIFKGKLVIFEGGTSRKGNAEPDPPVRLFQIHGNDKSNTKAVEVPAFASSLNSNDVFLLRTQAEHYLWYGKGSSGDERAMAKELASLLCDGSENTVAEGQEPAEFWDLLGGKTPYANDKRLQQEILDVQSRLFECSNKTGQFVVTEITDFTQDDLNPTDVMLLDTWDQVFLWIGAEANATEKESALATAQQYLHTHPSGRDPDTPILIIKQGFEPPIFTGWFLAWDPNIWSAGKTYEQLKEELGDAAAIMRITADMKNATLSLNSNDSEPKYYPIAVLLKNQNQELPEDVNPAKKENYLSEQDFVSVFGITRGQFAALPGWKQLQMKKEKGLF
The assay is described as follows: Immunoprecipitation (MYC antibody) and Western blot (β-actin antibody) in 293T cells transfected with MYC tagged AVIL. The settings on record: IC50 dose, 24 hrs, FIGS. 2A and 2B. On the procedure: 293T cells were first transfected with MYC tagged AVIL. After 24 hrs, the cells were treated with the IC50 dose of the five compounds for 24 hrs. Immunoprecipitation was performed with MYC antibody, and Western blot was performed with β-actin antibody.
293T cells were first transfected with MYC tagged AVIL as follows: transfect pQCXIH-myc-AVIL plasmid in 6 well plate of 293T for 48 hrs. 200 ul opti-medium+7 ul GeneCellin (Polyplus transfection Co.)+4 ug plasmids in each well. Transfected AVIL cells were treated with the IC50 dose of the test compounds for 24 hrs. Protein extract was then prepared on ice by adding 1 ml IP lysis buffer+protease inhibitor+cocktail+PMSF, and let stand on ice for 30 min. Cells were then scraped into EP tubes and sonicated continuously for 5 sec with power setting 3. Tubes were then centrifuged in 4° C. at 13000 rpm for 20 min, and the upper aqueous phase was then transferred to pre-chilled tubes. Protein concentration was then determined using Bio-Rad protein assay. Preclear cell extracts were treated with 50 ul ProteinG/Sepharose per my lysate for 1 hr. Then 500 ug precleared cell extracts were taken and adjusted to 500 ul with lysis buffer for 2 ug myc antibody or IgG control and incubated at 4° C. overnight. Then, 25 ul ProteinG/Sepharose beads were added and incubated at 4° C. overnight. Beads were then washed four times with 1 ml IP wash buffer for 3 min, and spun at 1000 rpm to pellet beads. All wash buffer was removed with pipette, and 20 ul 2×SDS loading buffer was added and then boiled at 95° C. for 10 min to denature. This was centrifuged at 12000 rpm for 30 sec., and the supernatant was then transferred to a fresh tube and load for SDS-PAGE.
Western blot was performed with R-actin antibody. To measure protein levels, cell lysates were resolved by denaturing gel electrophoresis, before electrotransfer to a Protran nitrocellulose membrane. The membrane was subjected to western blot analysis with antibodies against the proteins of interest. The following antibodies and dilutions were used: rabbit anti-AVIL (1:2000; Sigma SAB2100191).
Background: Immunoblotting shows a protein as a band on a membrane.

For assay [3], the system named is Immortalized human astrocytes. The assay can be described thus: MTT cell viability assay, astrocytes (non-cancer control). Particulars: for IC50: immortalized human astrocytes, MTT after three days. On the procedure:
as §1, §2

The mark [4] stands for this setting: Homo sapiens, U-87 MG, 72 h, value in nM.

Read-outs that look alike come from different tables or passages of the source.

A word on the IC50: it is the concentration that inhibits the measured activity by half. In the case of `Cc1ncnc(N2CCCC(CO)(CCCc3ccccc3)C2)c1C` (centres unmarked) [PLH2056, (1-(5,6-Dimethylpyrimidin-4-yl)-3-(3-phenylpropyl)piperidin-3-yl)methanol], the IC50 in assay [1] (Homo sapiens, U-87 MG, 72 h) was < 2500 nM; in assay [3] (Homo sapiens, Astrocyte, 72 h), ~80 µM. Moreover, the “down-regulation of LIN28B gene expression” value (“down-regulation” below) with LIN28B is reported as “down-regulation of LIN28B gene expression”. Further, the “disruption of AVIL protein binding to actin” value (“disruption” below) in assay [2] is on record as “disruption of AVIL protein binding to actin”.

Consider `Cc1nc(N)nc(N2CCCC(CO)(CCCc3ccccc3)C2)c1C` (centres unmarked) [PLH1252, (1-(2-Amino-5,6-dimethylpyrimidin-4-yl)-3-(3-phenylpropyl)piperidin-3-yl)methanol], for which the “concentration at which most if not all of the U87 cells were wiped out” value in assay [1] (FIG. 1 cell survival curves, U87) is “less than 1 μM”. Further, the IC50 in assay [1] (Homo sapiens, U-87 MG, 72 h) was ~1000 nM; in assay [1] (setting [4]), ~600 nM; in assay [3] (Homo sapiens, Astrocyte, 72 h), 45 µM; in assay [3] (read-out: IC50 (astrocyte)), ~80 µM. Also, the “down-regulation” value in the assay with LIN28B is on record as “down-regulation of LIN28B gene expression”. Also, in assay [2], the “disruption” value is recorded as “disruption of AVIL protein binding to actin”. In addition, the effect on astrocytes result in assay [3] (FIG. 1 cell survival curves, astrocytes, varied doses) is “no significant effect”.

For the molecule `Clc1cc(N2CCc3ccccc3C2)ncn1` [JDDUVA81], the IC50 was > 80000 nM in assay [1] (Homo sapiens, U-87 MG, 72 h) and > 80 µM in assay [3] (Homo sapiens, Astrocyte, 72 h).

As for `COC(=O)C1(CCCc2ccccc2)CCCN(C(=O)OC(C)(C)C)C1` (centres unmarked) [PLH1195], the concentration for half-maximal inhibition (IC50) in assay [1] (Homo sapiens, U-87 MG, 72 h) was ~22500 nM; in assay [3] (Homo sapiens, Astrocyte, 72 h) it was 65 µM.

In the case of `Nc1nc(N)nc(N2CCC(CO)(CCCc3ccccc3)CC2)n1` [JDDUVA78, (1-(4,6-Diamino-1,3,5-triazin-2-yl)-4-(3-phenylpropyl)piperidin-4-yl)methanol], the IC50 in assay [1] (Homo sapiens, U-87 MG, 72 h) is 12000 nM; in assay [3] (Homo sapiens, Astrocyte, 72 h), ~40 µM.

As to `OCC1(CCCc2ccccc2)CCCN(c2ccccn2)C1` (centres unmarked) [PLH1291, (3-(3-Phenylpropyl)-1-(pyridin-2-VI)piperidin-3-VI)methanol], the IC50 is 14000 nM in assay [1] (Homo sapiens, U-87 MG, 72 h) and > 80 µM in assay [3] (Homo sapiens, Astrocyte, 72 h).

Regarding `Cc1c(O)ncnc1N1CCC(CO)(CCCc2ccccc2)CC1` [JDDUVA48, 6-(4-(Hydroxymethyl)-4-(3-phenylpropyl)piperidin-1-yl)-5-methylpyrimidin-4-ol], the concentration for half-maximal inhibition (IC50) was determined as 14100 nM in assay [1] (Homo sapiens, U-87 MG, 72 h) and 7.32 µM in assay [3] (Homo sapiens, Astrocyte, 72 h).

Turning to `OCC1(CCCc2ccccc2)CCCNC1` (centres unmarked) [PLH1211], the half-maximal inhibitory concentration (IC50) in assay [1] (Homo sapiens, U-87 MG, 72 h) was > 80000 nM; in assay [3] (Homo sapiens, Astrocyte, 72 h), > 80 µM.

Turning to `OCC1(CCCc2ccccc2)CCCN(c2ncnc3ccccc23)C1` (centres unmarked) [PLH1295, (3-(3-Phenylpropyl)-1-(quinazolin-4-yl)piperidin-3-yl)methanol], the IC50 in assay [1] (Homo sapiens, U-87 MG, 72 h) was < 1000 nM; in assay [1] (setting [4]), 500 nM; in assay [3] (Homo sapiens, Astrocyte, 72 h), 22 µM; in assay [3] (read-out: IC50 (astrocyte)), 30 µM. Moreover, the “down-regulation” value in the assay with LIN28B was “down-regulation of LIN28B gene expression”. The “disruption” value in assay [2] was “disruption of AVIL protein binding to actin”.

`Nc1ccnc(N2CCC(CO)(CCCc3ccccc3)CC2)n1` [JDDUVA69, (1-(4-Aminopyrimidin-2-yl)-4-(3-phenylpropyl)piperidin-4-yl)methanol]: the IC50 in assay [1] (Homo sapiens, U-87 MG, 72 h) was 13600 nM; in assay [3] (Homo sapiens, Astrocyte, 72 h) it was > 80 µM.

For `COC(=O)C1(CCCc2ccccc2)CCCN(c2ccnc(N)n2)C1` (centres unmarked) [PLH1209, Methyl 1-(2-aminopyrimidin-4-yl)-3-(3-phenylpropyl)piperidine-3-carboxylate], the half-maximal inhibitory concentration (IC50) turned out to be 6000 nM in assay [1] and 76 µM in assay [3] (read-out: IC50 (astrocyte)).

Take `Nc1nccc(N2CCC(CO)(CCCc3ccccc3)CC2)n1` [JDDUVA49, (1-(2-Aminopyrimidin-4-yl)-4-(3-phenylpropyl)piperidin-4-yl)methanol]: the IC50 in assay [1] (Homo sapiens, U-87 MG, 72 h) is 3000 nM; in assay [3] (Homo sapiens, Astrocyte, 72 h), > 80 µM.

`Cc1c(Cl)ncnc1N1CCC(CO)(CCCc2ccccc2)CC1` [JDDUVA50, (1-(6-Chloro-5-methylpyrimidin-4-yl)-4-(3-phenylpropyl)piperidin-4-yl)methanol]: the IC50 in assay [1] (Homo sapiens, U-87 MG, 72 h) is 21000 nM; in assay [3] (Homo sapiens, Astrocyte, 72 h), > 80 µM.

`Nc1ccnc(N2CCCC(CO)(CCCc3ccccc3)C2)n1` (centres unmarked) [PLH2006, (1-(4-Aminopyrimidin-2-yl)-3-(3-phenylpropyl)piperidin-3-yl)methanol]: the IC50 is > 80000 nM in assay [1] (Homo sapiens, U-87 MG, 72 h) and > 80 µM in assay [3] (Homo sapiens, Astrocyte, 72 h).

For `COC(=O)C1CCCNC1` (centres unmarked) [PLH1155], the IC50 is > 80000 nM in assay [1] (Homo sapiens, U-87 MG, 72 h) and > 80 µM in assay [3] (Homo sapiens, Astrocyte, 72 h).

Regarding `OCC1(CCCc2ccccc2)CCCN(c2ncnc3cc(Cl)ccc23)C1` (centres unmarked) [PLH2074, (1-(7-Chloroquinazolin-4-yl)-3-(3-phenylpropyl)piperidin-3-yl)methanol], the half-maximal inhibitory concentration (IC50) in assay [1] (Homo sapiens, U-87 MG, 72 h) is ~2000 nM; in assay [3] (Homo sapiens, Astrocyte, 72 h), ~15 µM.

In the case of `c1ccc(COCC2CCCN(c3ncnc4ccccc34)C2)cc1` (centres unmarked) [PLH2069, 4-(3-((Benzyloxy)methyl)piperidin-1-yl)quinazoline], the “down-regulation” value with LIN28B was “down-regulation of LIN28B gene expression”. Besides, the “disruption” value in assay [2] is given as “disruption of AVIL protein binding to actin”.

For the molecule `Cc1nccnc1N1CCCC(CO)(CCCc2ccccc2)C1` (centres unmarked) [PLH1234, (1-(3-Methylpyrazin-2-yl)-3-(3-phenylpropyl)piperidin-3-yl)methanol], the IC50 in assay [1] (Homo sapiens, U-87 MG, 72 h) came out at 20000 nM; in assay [3] (Homo sapiens, Astrocyte, 72 h), 51.8 µM.

In the case of `COC(=O)C1CCCN(C(=O)OC(C)(C)C)C1` (centres unmarked) [PLH1190], the concentration for half-maximal inhibition (IC50) is > 80000 nM in assay [1] (Homo sapiens, U-87 MG, 72 h) and > 80 µM in assay [3] (Homo sapiens, Astrocyte, 72 h).
